Each molecule was assayed against human A2A receptor (A2AR) (Homo sapiens (Human), UniProt P29274) (assay: Luciferase reporter assay (HEK293-A2AR-luc2p/CRE/Hygro cells)). Conditions: 3 nM CGS21680, 5 h incubation.
Assay type: cell-based
Procedure, shortened: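 Antagonism was scored as inhibition of CRE-luciferase signal driven by 3 nM CGS21680 (=100%) during a 5 h treatment with compound at 0.1–10000 nM. The line was HEK293 stably carrying human A2AR and luc2P/CRE, preincubated 18 h in 1% FBS containing 1 U/mL ADA. IC50 came from the dose-response curve.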

Sequence of human A2A receptor (A2AR) (P29274 whole entry): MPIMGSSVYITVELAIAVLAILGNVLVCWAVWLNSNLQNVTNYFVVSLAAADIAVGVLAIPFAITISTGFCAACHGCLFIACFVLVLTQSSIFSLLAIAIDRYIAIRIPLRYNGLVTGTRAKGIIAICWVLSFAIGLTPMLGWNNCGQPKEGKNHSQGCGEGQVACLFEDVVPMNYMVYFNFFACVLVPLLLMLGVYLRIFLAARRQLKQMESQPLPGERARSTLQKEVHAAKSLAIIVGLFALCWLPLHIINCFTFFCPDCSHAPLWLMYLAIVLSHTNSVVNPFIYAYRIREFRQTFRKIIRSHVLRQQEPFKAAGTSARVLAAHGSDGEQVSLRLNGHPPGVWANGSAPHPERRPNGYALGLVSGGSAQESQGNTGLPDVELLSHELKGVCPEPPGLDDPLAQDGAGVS

Question: For Cc1ccccc1C(C)(C(=O)NCC1(O)COC1)n1ncc2c1nc(N)n1nc(-c3ccco3)nc21 (stereo not drawn) [Example 63, 2-(5-amino-2-(furan-2-yl)-7H-pyrazolo[4,3-e][1,2,4]triazolo[1,5-c]pyrimidin-7-yl)-N-((3-hydroxyoxetan-3-yl)methyl)-2-(o-tolyl)propanamide], which IC50 is on record?
Answer: 4.3 nM

Question: C[C@](C(=O)N[C@H]1CC[C@H](O)CC1)(c1ccccc1)n1ncc2c1nc(N)n1nc(-c3ccco3)nc21 [Example 52B, (R)-2-(5-amino-2-(furan-2-yl)-7H-pyrazolo[4,3-e][1,2,4]triazolo[1,5-c]pyrimidin-7-yl)-N-((trans)-4-hydroxycyclohexyl)-2-phenylpropanamide] was tested. Which IC50 did it give?
Answer: 5 nM

Question: For COc1ccc(CNC(=O)C(c2ccccc2)n2ncc3c2nc(N)n2nc(-c4ccco4)nc32)cc1 (stereo not drawn) [Example 28, 2-(5-amino-2-(furan-2-yl)-7H-pyrazolo[4,3-e][1,2,4]triazolo[1,5-c]pyrimidin-7-yl)-N-(4-methoxybenzyl)-2-phenylacetamide], which IC50 is on record?
Answer: 1.6 nM

Question: Nc1nc2c(cnn2C(C(=O)Nc2ccccc2)c2ccccc2)c2nc(-c3ccco3)nn12 (stereo not drawn) [Example 3, 2-(5-amino-2-(furan-2-yl)-7H-pyrazolo[4,3-e][1,2,4]triazolo[1,5-c]pyrimidin-7-yl)-N,2-diphenylacetamide] was tested. Which IC50 did it give?
Answer: 5.2 nM

Question: COc1cccc(C(C)(C(=O)NCC2(O)COC2)n2ncc3c2nc(N)n2nc(-c4ccco4)nc32)c1 (stereo not drawn) [Example 137, 2-(5-amino-2-(furan-2-yl)-7H-pyrazolo[4,3-e][1,2,4]triazolo[1,5-c]pyrimidin-7-yl)-N-((3-hydroxyoxetan-3-yl)methyl)-2-(3-methoxyphenyl)propanamide] was tested. Which IC50 did it give?
Answer: 13 nM

Question: Which IC50 does the source give for CC(C(=O)NCCO)(c1ccccc1)n1ncc2c1nc(N)n1nc(-c3ccco3)nc21 (stereo not drawn) [Example 55, 2-(5-amino-2-(furan-2-yl)-7H-pyrazolo[4,3-e][1,2,4]triazolo[1,5-c]pyrimidin-7-yl)-N-(2-hydroxyethyl)-2-phenylpropanamide] here?
Answer: 13.8 nM

Question: For CC(C(=O)N[C@H]1CCC[C@H]1O)(c1ccccc1)n1ncc2c1nc(N)n1nc(-c3ccco3)nc21 (stereo partly drawn) [Example 47, 2-(5-amino-2-(furan-2-yl)-7H-pyrazolo[4,3-e][1,2,4]triazolo[1,5-c]pyrimidin-7-yl)-N-((1S,2R)-2-hydroxycyclopentyl)-2-phenylpropanamide], which IC50 is on record?
Answer: 12.8 nM

Question: With CC(C(=O)NCc1ncccc1F)(c1ccccc1)n1ncc2c1nc(N)n1nc(-c3ccco3)nc21 (stereo not drawn) [Example 119, 2-(5-amino-2-(furan-2-yl)-7H-pyrazolo[4,3-e][1,2,4]triazolo[1,5-c]pyrimidin-7-yl)-N-((3-fluoropyridin-2-yl)methyl)-2-phenylpropanamide] as the molecule, how does the IC50 read?
Answer: 3.2 nM

Question: CNC(=O)C(C)(c1ccccc1)n1ncc2c1nc(N)n1nc(-c3ccco3)nc21 (stereo not drawn) [Example 32, 2-(5-amino-2-(furan-2-yl)-7H-pyrazolo[4,3-e][1,2,4]triazolo[1,5-c]pyrimidin-7-yl)-N-methyl-2-phenylpropanamide] was tested. Which IC50 did it give?
Answer: 25 nM

Question: How did the IC50 turn out when Nc1nc2c(cnn2C(C(=O)NC2CCCC2)c2ccccc2)c2nc(-c3ccco3)nn12 (stereo not drawn) [Example 12, 2-(5-amino-2-(furan-2-yl)-7H-pyrazolo[4,3-e][1,2,4]triazolo[1,5-c]pyrimidin-7-yl)-N-cyclopentyl-2-phenylacetamide] was run?
Answer: 10.2 nM

Question: How did the IC50 turn out when CC(C(=O)NC[C@H]1CCCO1)(c1ccccc1)n1ncc2c1nc(N)n1nc(-c3ccco3)nc21 (stereo partly drawn) [Example 50, 2-(5-amino-2-(furan-2-yl)-7H-pyrazolo[4,3-e][1,2,4]triazolo[1,5-c]pyrimidin-7-yl)-2-phenyl-N—(((R)-tetrahydrofuran-2-yl)methyl)propanamide] was run?
Answer: 5.3 nM

Question: Which IC50 does the source give for Nc1nc2c(cnn2C(C(=O)NCc2cccc(C3(O)CCC3)n2)c2ccccc2)c2nc(-c3ccco3)nn12 (stereo not drawn) [Example 18, 2-(5-amino-2-(furan-2-yl)-7H-pyrazolo[4,3-e][1,2,4]triazolo[1,5-c]pyrimidin-7-yl)-N-((6-(1-hydroxycyclobutyl)pyridin-2-yl)methyl)-2-phenylacetamide] here?
Answer: 0.9 nM

Question: Which IC50 does the source give for CC(=O)O[C@H]1CC[C@@H](NC(=O)[C@@](C)(c2ccccc2)n2ncc3c2nc(N)n2nc(-c4ccco4)nc32)CC1 [Example 151B, (cis)-4-((R)-2-(5-amino-2-(furan-2-yl)-7H-pyrazolo[4,3-e][1,2,4]triazolo[1,5-c]pyrimidin-7-yl)-2-phenylpropanamido)cyclohexyl acetate] here?
Answer: 2 nM

Question: With COc1cccc(CNC(=O)[C@@](C)(c2ccccc2)n2ncc3c2nc(N)n2nc(-c4ccco4)nc32)n1 [Example 112B, (R)-2-(5-amino-2-(furan-2-yl)-7H-pyrazolo[4,3-e][1,2,4]triazolo[1,5-c]pyrimidin-7-yl)-N-((6-methoxypyridin-2-yl)methyl)-2-phenylpropanamide] as the molecule, how does the IC50 read?
Answer: 1.2 nM

Question: With CN1CCN(CCNC(=O)C(C)(c2ccccc2)n2ncc3c2nc(N)n2nc(-c4ccco4)nc32)CC1 (stereo not drawn) [Example 147, 2-(5-amino-2-(furan-2-yl)-7H-pyrazolo[4,3-e][1,2,4]triazolo[1,5-c]pyrimidin-7-yl)-N-(2-(4-methylpiperazin-1-yl)ethyl)-2-phenylpropanamide] as the molecule, how does the IC50 read?
Answer: 24.7 nM

Question: With COc1cccnc1CNC(=O)C(C)(c1ccccc1)n1ncc2c1nc(N)n1nc(-c3ccco3)nc21 (stereo not drawn) [Example 115, 2-(5-amino-2-(furan-2-yl)-7H-pyrazolo[4,3-e][1,2,4]triazolo[1,5-c]pyrimidin-7-yl)-N-((3-methoxypyridin-2-yl)methyl)-2-phenylpropanamide] as the molecule, how does the IC50 read?
Answer: 1.9 nM

Question: CC(C(=O)NC[C@@H]1CCCO1)(c1ccccc1)n1ncc2c1nc(N)n1nc(-c3ccco3)nc21 (stereo partly drawn) [Example 51, 2-(5-amino-2-(furan-2-yl)-7H-pyrazolo[4,3-e][1,2,4]triazolo[1,5-c]pyrimidin-7-yl)-2-phenyl-N—(((S)-tetrahydrofuran-2-yl)methyl)propanamide] was tested. Which IC50 did it give?
Answer: 2.7 nM

Question: How did the IC50 turn out when C[C@](C(=O)NCc1ccccn1)(c1ccccc1)n1ncc2c1nc(N)n1nc(-c3ccco3)nc21 [Example 66B, (R)-2-(5-amino-2-(furan-2-yl)-7H-pyrazolo[4,3-e][1,2,4]triazolo[1,5-c]pyrimidin-7-yl)-2-phenyl-N-(pyridin-2-ylmethyl)propanamide] was run?
Answer: 2.4 nM

Question: How did the IC50 turn out when C[C@@](C(=O)NCC1(O)COC1)(c1ccccc1)n1ncc2c1nc(N)n1nc(-c3ccco3)nc21 [Example 31A] was run?
Answer: 28 nM

Question: For CC(C(=O)N[C@@H]1CC[C@@H](O)C1)(c1ccccc1)n1ncc2c1nc(N)n1nc(-c3ccco3)nc21 (stereo partly drawn) [Example 94, 2-(5-amino-2-(furan-2-yl)-7H-pyrazolo[4,3-e][1,2,4]triazolo[1,5-c]pyrimidin-7-yl)-N-((1R,3R)-3-hydroxycyclopentyl)-2-phenylpropanamide], which IC50 is on record?
Answer: 11.2 nM

Question: With Cc1cccc(CNC(=O)C(C)(c2ccccc2)n2ncc3c2nc(N)n2nc(-c4ccco4)nc32)n1 (stereo not drawn) [Example 108, 2-(5-amino-2-(furan-2-yl)-7H-pyrazolo[4,3-e][1,2,4]triazolo[1,5-c]pyrimidin-7-yl)-N-((6-methylpyridin-2-yl)methyl)-2-phenylpropanamide] as the molecule, how does the IC50 read?
Answer: 3 nM

Question: Which IC50 does the source give for Nc1nc2c(cnn2C(C(=O)N[C@H]2CCOc3ccccc32)c2ccccc2)c2nc(-c3ccco3)nn12 (stereo partly drawn) [Example 16, 2-(5-amino-2-(furan-2-yl)-7H-pyrazolo[4,3-e][1,2,4]triazolo[1,5-c]pyrimidin-7-yl)-N—((S)-chroman-4-yl)-2-phenylacetamide] here?
Answer: 44.6 nM

Question: With C[C@](C(=O)O)(c1ccccc1)n1ncc2c1nc(N)n1nc(-c3ccco3)nc21 [Intermediate-Ib, (R)-2-(5-amino-2-(furan-2-yl)-7H-pyrazolo[4,3-e][1,2,4]triazolo[1,5-c]pyrimidin-7-yl)-2-phenylpropanoic acid] as the molecule, how does the IC50 read?
Answer: 567 nM

Question: C[C@](C(=O)N[C@H]1C[C@@H](O)C1)(c1ccccc1)n1ncc2c1nc(N)n1nc(-c3ccco3)nc21 [Example 104B, (R)-2-(5-amino-2-(furan-2-yl)-7H-pyrazolo[4,3-e][1,2,4]triazolo[1,5-c]pyrimidin-7-yl)-(cis)-N-(3-hydroxycyclobutyl)-2-phenylpropanamide] was tested. Which IC50 did it give?
Answer: 9.1 nM

Question: How did the IC50 turn out when CC(C(=O)NCCN1CCNCC1)(c1ccccc1)n1ncc2c1nc(N)n1nc(-c3ccco3)nc21 (stereo not drawn) [Example 45, 2-(5-amino-2-(furan-2-yl)-7H-pyrazolo[4,3-e][1,2,4]triazolo[1,5-c]pyrimidin-7-yl)-2-phenyl-N-(2-(piperazin-1-yl)ethyl)propanamide] was run?
Answer: 22.4 nM

Question: CC(C)(C(=O)NCC1(O)COC1)n1ncc2c1nc(N)n1nc(-c3ccco3)nc21 [Example 138, 2-(5-amino-2-(furan-2-yl)-7H-pyrazolo[4,3-e][1,2,4]triazolo[1,5-c]pyrimidin-7-yl)-N-((3-hydroxyoxetan-3-yl)methyl)-2-methylpropanamide] was tested. Which IC50 did it give?
Answer: 33.2 nM

Question: C[C@](C(=O)N[C@H]1C[C@H](O)C1)(c1ccccc1)n1ncc2c1nc(N)n1nc(-c3ccco3)nc21 [Example 102B, (R)-2-(5-amino-2-(furan-2-yl)-7H-pyrazolo[4,3-e][1,2,4]triazolo[1,5-c]pyrimidin-7-yl)-(trans)-N-(3-hydroxycyclobutyl)-2-phenylpropanamide] was tested. Which IC50 did it give?
Answer: 10.7 nM

Question: Which IC50 does the source give for COc1ccc(C(C)(C(=O)NCC2(O)COC2)n2ncc3c2nc(N)n2nc(-c4ccco4)nc32)cc1 (stereo not drawn) [Example 86, 2-(5-amino-2-(furan-2-yl)-7H-pyrazolo[4,3-e][1,2,4]triazolo[1,5-c]pyrimidin-7-yl)-N-((3-hydroxyoxetan-3-yl)methyl)-2-(4-methoxyphenyl)propanamide] here?
Answer: 85.9 nM

Question: With CCCC(C(=O)NCc1ccccc1OC)n1ncc2c1nc(N)n1nc(-c3ccco3)nc21 (stereo not drawn) [Example 21, 2-(5-amino-2-(furan-2-yl)-7H-pyrazolo[4,3-e][1,2,4]triazolo[1,5-c]pyrimidin-7-yl)-N-(2-methoxybenzyl)pentanamide] as the molecule, how does the IC50 read?
Answer: 15.3 nM

Question: For COCCOc1ccc(N2CCN(CCNC(=O)C(C)(c3ccccc3)n3ncc4c3nc(N)n3nc(-c5ccco5)nc43)CC2)cc1 (stereo not drawn) [Example 44, 2-(5-amino-2-(furan-2-yl)-7H-pyrazolo[4,3-e][1,2,4]triazolo[1,5-c]pyrimidin-7-yl)-N-(2-(4-(4-(2-methoxyethoxy)phenyl)piperazin-1-yl)ethyl)-2-phenylpropanamide], which IC50 is on record?
Answer: 22.5 nM
